Source: patent US7605227B2, “Melanoma antigen peptide analogues” (MannKind Corporation, priority 2005, dated 2009)
“Also recorded” adds a separate entry of the source.

Key:
[1] = system: T cells that recognized the PSMA288-297 peptide; experiment: Plasmid prime, PSMA peptide boost, IFN-gamma ELISPOT; type: in vivo, HHD transgenic mice; settings: versus natural peptide boost
Method: Two groups of HHD transgenic mice (n=8) were immunized with plasmid expressing PSMA288-297 by direct inoculation into the inguinal lymph nodes with 25 μg in 25 μl of PBS to each lymph node at day 0, 3, 14 and 17. This was followed by two peptide boosts (25 μg) at day 28 and 31 with either the natural peptide or the I297V analog.
Mice were sacrificed at 10 days after the last boost, and splenocytes prepared and assessed for IFN-γ production by ELISPOT analysis. […] At 48 hours after incubation, the assay was developed and the frequency of cytokine-producing T cells that recognized the PSMA288-297 peptide was automatically counted. The data is represented in FIG. 23 as frequency of specific T cells normalized to 0.5 million responder cells (mean of triplicates+SD).

[2] = system: T cells that recognized native PSMA288-297 peptide; experiment: Peptide immunization with PSMA analogs, IFN-gamma ELISPOT against native peptide; type: in vivo, HHD transgenic mice; settings: peptide + pI:C intranodal immunization
Method: Groups of HHD transgenic mice (n=8) were immunized with peptide (natural epitope PSMA288-297, or analogs bearing substitutions at primary or secondary anchor residues) by direct inoculation into the inguinal lymph nodes, with 25 μg in 25 μl of PBS+12.5 μg of pI:C to each lymph node at day 0, 3, 14 and 17.
Mice were sacrificed at 10 days after the last boost, and splenocytes prepared and assessed for IFN-γ production by ELISPOT analysis. […] At 48 hours after incubation, the assay was developed and the frequency of cytokine-producing T cells that recognized native PSMA288-297 peptide was automatically counted. The data is represented in FIG. 22 as the number of spot forming colonies/well (mean of triplicates±SD). […] To the extent that the poor immunogenicity of the native epitope reflects tolerance, the improved activity of these analogs represents tolerance breaking.

PSMA+ A2+ LnCap cells = experiment: PSMA immunization, ex vivo cytotoxicity against human tumor cells; type: in vivo, HHD transgenic mice
Method: HHD transgenic mice (n=4) were immunized with PSMA288-297 peptide (25 μg in 25 μl of PBS, plus 12.5 μg of pI:C to each lymph node) at day 0, 3, 14 and 17. One week after the boost, splenocytes were stimulated ex vivo with the native PSMA288-297 peptide and tested against ^51Cr-labeled human tumor cells (PSMA^+ A2^+ LnCap cells, or as negative control, LnCap cells coated with MHC class I-blocking antibody) at various E:T ratios.
HHD transgenic mice (n=4) were immunized with plasmid expressing the PSMA288-297 epitope by direct inoculation into the inguinal lymph nodes with 25 μg in 25 μl of PBS to each lymph node at day 0, 3, 14 and 17. This was followed by two peptide boosts (same amount) at day 28 and 31, with the analog I297V. One week after the boost, splenocytes were stimulated ex vivo with the native PSMA288-297 peptide and tested overnight against ^51Cr-labeled human tumor cells (Lncap, A2^+ PSMA^+; or 624.38 A2^+ PSMA^− or control 624.28 cells A2^− PSMA^−) at various E:T ratios.

[3] = system: T cells specific for the wild-type NY-ESO-1157-165 epitope; experiment: Cross-reactivity and functional avidity of NY-ESO-1 157-165 analogs (IFN-gamma); type: cell-based, HHD transgenic mice
From the text: A methodology was devised to allow rapid and rational screening of peptide analogs in a fashion coherent with proposed methods of use and modeling the overall immunologic properties (Kon and Koff relative to MHC interaction and TCR binding properties in an integrated fashion). In some instances, the method included generating T cell lines against a natural (non-mutated) epitope (SSX-241-49), and using an immunization strategy potent enough to generate a useful response in transgenic mice carrying human MHC (such as the A2 allele). Peptide analogs were interrogated ex vivo in the presence of competent APCs and the functional impact of T cells specific for natural (non-mutated) epitopes measured. The evaluation was done at various concentrations of analog, because the expected effect was biphasic in the case of cross reactive peptides (activating at limited concentrations and inhibiting at higher concentrations, due to antigen-induced cell death, AICD). Measurement of the following three parameters were used to define basic and useful characteristics of peptide analogs: • 1. […]
At 7 days after the last boost, the mice were sacrificed and a suspension of splenocytes prepared at 5×10^6 […] cells/ml in complete HL-1 medium. […] The supernatant was harvested and the concentration of IFN-gamma assessed by standard methods such as ELISA. […]

HLA-A*0201 = HLA-A*0201 (Homo sapiens, UniProt P04439, D140Y/D185E/D98H/E176V/E277Q/G131W/G231S/I119V/I121R/I166T/I218V/L300P/L318F/N151K/N90K/P208A/P217A/Q86G/Q94H/R138H/R169H/T345S); experiment: iTopia off-rate assay (T1/2); type: binding; settings: PRAME425-433 and analogs
Method: Avidin-coated microtiter plates containing class I monomer loaded with a so-called placeholder peptide were used to evaluate peptide binding, affinity and off-rate. […] Assay buffers, anti-MHC-FITC mAb and beta2-microglobulin and control peptides were also supplied with the kits.
The plates were then incubated on the allele-specific monomer plates at 37° C. The plates were measured at multiple time points (0, 0.5, 1, 1.5, 2, 4, 6 and 8 hrs) for relative fluorescence intensity. The time required for 50% of the peptide to dissociate from the MHC monomer is defined as the T1/2 value (hrs).
The binding and offrate (T1/2) was determined for six native epitopes and their analogs which were designed to enhance the immune response.

[4] = system: native epitope coated cells; experiment: pCTLR2 prime, PRAME peptide boost, in vivo cytotoxicity (CFSE); parameters: species or system HHD transgenic mice

GLPSIPVHPV [PSMA 288-297(I297V)]
frequency of native epitope-specific T cells (ELISPOT), in words [1]: considerably higher
IFN-γ ELISPOT response against native epitope, in words [2]: increased priming of immune responses against the native epitope
ex vivo cytotoxicity against PSMA+ human tumor cells, in words (PSMA+ A2+ LnCap cells): cytotoxic immunity against a PSMA^+ human tumor line; also recorded: effective in mediating cytotoxicity against LNCAP

L158V: NY-ESO-1 157-165 analog with V for L at position 158 (SVLMWITQC; UniProt P78358 157-165, looked up, variant L158V) [Peptide L158V]
cross-reactivity / activity relative to wild-type, in words [3]: partial retention of activity

S425F: PRAME425-433 analog with Phe for Ser at P1 (FLLQHLIGL) [Peptide S425F]
half time of dissociation (HLA-A*0201): 17.7 h
in vivo cytotoxicity against native epitope, in words [4]: capable of expanding the immunity against the native epitope
